Experimental data reported in patent US10533014B2, “Immunoregulatory agents” (Flexus Biosciences, Inc., priority 2014, dated 2020).
pIC50: −log10 of the molar value.

Target: T1, human IDO1 (Homo sapiens, UniProt P14902)
T1 construct: expressed in transfected cells
Assay: IDO inhibition assay in HEK293 cells stably expressing human IDO1 (Example 252)
Format: cell-based
Details: 20 hours incubation, kynurenine by Ehrlich reagent, absorbance at 490 nm, read-out: HEK Human IDO-1 Potency
Protocol: 1HEK293 cells were transfected with a pCDNA-based mammalian expression vector harboring human IDO1 cDNA (NM 002164.2) by electroporation. They were cultured in medium (DMEM with 10% FBS) containing 1 mg/ml G418 for two weeks. Clones of HEK293 cells that stably expressed human IDO1 protein were selected and expanded for IDO inhibition assay.
The human IDO1/HEK293 cells were seeded at 10,000 cells per 50 μL per well with RPMI/phenol red free media contains 10% FBS in a 384-well black wall clear bottom tissue culture plate (Matrix Technologies LLC) 100 nL of certain concentration of compound was then added to each well using ECHO liquid handling systems. The cells were incubated for 20 hours in 37° C. incubator with 5% CO2.
The compound treatments were stopped by adding Trichloroacetic Acid (Sigma-Aldrich) to a final concentration at 0.2%. The cell plate was further incubated at 50° C. for 30 minute. The equal volume supernatant (20 μL) and 0.2% (w/v) Ehrlich reagent (4-dimethylaminobenzaldehyde, Sigma-Aldrich) in glacial acetic acid were mixed in a new clear bottom 384-well plate. This plate was then incubated at room temperature for 30 minute. The absorbance at 490 nm was measured on Envision plate reader.

T1 sequence (P14902 whole entry): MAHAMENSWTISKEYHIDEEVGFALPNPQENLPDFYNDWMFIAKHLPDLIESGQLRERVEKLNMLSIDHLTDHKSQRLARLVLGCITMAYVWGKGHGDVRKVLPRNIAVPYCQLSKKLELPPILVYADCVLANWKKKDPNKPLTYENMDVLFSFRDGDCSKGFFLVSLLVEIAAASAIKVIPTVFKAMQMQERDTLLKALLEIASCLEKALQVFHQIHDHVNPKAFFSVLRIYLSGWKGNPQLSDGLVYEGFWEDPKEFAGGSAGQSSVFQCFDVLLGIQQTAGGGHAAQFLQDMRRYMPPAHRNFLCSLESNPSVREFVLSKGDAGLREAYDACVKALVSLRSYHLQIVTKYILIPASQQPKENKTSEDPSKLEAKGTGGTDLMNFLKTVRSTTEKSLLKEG

Row | Compound | pIC50
1 | CC(C(=O)Nc1ccc(Cl)cc1)C1CCC(c2ccnc3c2ncn3C)CC1 (mixture of isomers) [Example 250, (+/−)-Cis and trans-N-(4-chlorophenyl)-2-(4-(3-methyl-3H-imidazo[4,5-b]pyridin-7-yl)cyclohexyl)propanamide] | > 6.60
2 | N-(4-chlorophenyl)-2-(cis-4-(6-fluoroquinolin-4-yl)-1-hydroxycyclohexyl)propanamide [Example 232] | > 7.30
3 | CC(C(=O)O)c1ccc(C[C@@H](C(=O)Nc2ccc(Cl)cc2)[C@H]2CC[C@@H](c3ccnc4ccc(F)cc43)CC2)cc1 (single isomer, unassigned) [Example 139] | > 7.30
4 | N-(4-chlorophenyl)-2-(trans-4-(6-fluoroquinolin-4-yl)-1-hydroxycyclohexyl)propanamide [Example 229] | > 7.30
5 | C[C@@H](C(=O)NC1CCCCC1)[C@H]1CC[C@@H](c2ccnc3ccc(F)cc32)CC1 (relative stereo) [Example 141, (R)-N-cyclohexyl-2-((cis)-4-(6-fluoroquinolin-4-yl)cyclohexyl) propanamide] | > 7.30
6 | N-(4-chlorophenyl)-2-(trans-4-(6-fluoroquinolin-4-yl)-1-hydroxycyclohexyl)propanamide [Example 230] | > 6.60
7 | COCC(C(=O)Nc1ccc(Cl)cc1)N1CCN(c2ccnc3ccc(F)cc23)CC1 (single isomer, unassigned) [Example 136, N-(4-chlorophenyl)-2-(4-(6-fluoroquinolin-4-yl)piperazin-1-yl)-3-methoxypropanamide] | < 6.60
8 | O=C(C[C@H]1CC[C@@H](c2ccnc3ccc(F)cc32)CC1)NC1CCCCC1 [Example 142, N-cyclohexyl-2-((cis)-4-(6-fluoroquinolin-4-yl)cyclohexyl) acetamide] | > 6.60
9 | N-(4-chlorophenyl)-2-(cis-4-(6-fluoroquinolin-4-yl)-1-hydroxycyclohexyl)propanamide [Example 231] | > 6.60
10 | CC(C(=O)O)c1ccc(C[C@@H](C(=O)Nc2ccc(Cl)cc2)[C@H]2CC[C@@H](c3ccnc4ccccc43)CC2)cc1 (single isomer, unassigned) [Example 87b] | > 7.30
11 | C[C@@H](C(=O)Nc1cccc(C(F)F)c1)[C@H]1CC[C@@H](c2ccnc3ccc(F)cc32)CC1 (relative stereo) [Example 63, (R)-N-(3-(difluoromethyl)phenyl)-2-((cis)-4-(6-fluoroquinolin-4-yl)cyclohexyl)propanamide] | > 7.30
